Patent US6413517B1, “Identification of broadly reactive DR restricted epitopes” (Epimmune, Inc., priority 1997, dated 2002)
Like-named read-outs stand apart in the source and are kept apart here. No end group written: not given here.

What was measured:
DRB1*0101 (DR1) = target: T1, DRB1*0101 (DR1) (Homo sapiens, UniProt P01903+P01911, A100R/D57E/F55L/F60I/F76Y/I96L/L162R/M171V/P40L/Q125E/R42F/V115G/Y59C); assay: biochemical; type: binding
T1 construct: Epstein-Barr virus (EBV) transformed homozygous cell lines were used as sources; endogenous in cells; host or cells: LG2 (EBV-transformed homozygous B cell line)

DRB1*0405 (DR4w15) = target: T2, DRB1*0405 (DR4w15) (Homo sapiens, UniProt P01903+P01911, A100R/A169T/D86S/F76Y/I96L/K127E/L162R/M171V/N62H/P40V/Q125Y/R42H/S133A/S149N/S66Y/V115G/V209L/W38E); assay: biochemical; type: binding
T2 construct: Epstein-Barr virus (EBV) transformed homozygous cell lines were used as sources; endogenous in cells; host or cells: KT3 (EBV-transformed homozygous B cell line)

DRB1*1501 (DR2w2b) = target: T3, DRB1*1501 (DR2w2b) (Homo sapiens, UniProt P01903+P01911); assay: biochemical; type: binding
T3 construct: expressed in transfected cells; host or cells: transfected fibroblasts L466.1

DRB1*0401 (DR4w4) = target: T4, DRB1*0401 (DR4w4) (Homo sapiens, UniProt P01903+P01911, A100K/A169T/F76Y/I96L/K127E/L162R/M171V/N62H/P40V/Q125Y/R42H/S133A/S149N/S66Y/V115G/V209L/W38E); assay: biochemical; type: binding
T4 construct: Epstein-Barr virus (EBV) transformed homozygous cell lines were used as sources; endogenous in cells; host or cells: PREISS (EBV-transformed homozygous B cell line)

DRB1*0802 (DR8w2) = target: T5, DRB1*0802 (DR8w2) (Homo sapiens, UniProt P01903+P01911, A100R/A103L/A169T/F76Y/H45Y/I96F/K41T/L162R/M171V/P40S/Q125H/Q178H/Q39Y/Q99D/R218S/R42G/S66Y/V115G/W38E); assay: biochemical; type: binding
T5 construct: Epstein-Barr virus (EBV) transformed homozygous cell lines were used as sources; endogenous in cells; host or cells: OLL (EBV-transformed homozygous B cell line)

DRB1*0701 (DR7) = target: T6, DRB1*0701 (DR7) (Homo sapiens, UniProt P01903+P01911, A100R/A102G/A103Q/D57E/D86V/E43K/F76Y/K127E/L162R/M171V/P40G/Q125H/Q99D/R33Q/R42Y/R54Q/S133A/S66F/T210M/V115G/Y107V/Y59L/Y89S); assay: biochemical; type: binding
T6 construct: Epstein-Barr virus (EBV) transformed homozygous cell lines were used as sources; endogenous in cells; host or cells: PITOUT (EBV-transformed homozygous B cell line)

DRB1*0301 (DR3w17) [1] = target: T7, DRB1*0301 (DR3w17) (Homo sapiens, UniProt P01903+P01911, A100K/A102G/A103R/A169T/F55Y/I96L/K41T/L162R/M171V/P40S/Q125H/Q178H/Q39Y/R42S/S66N/T106N/T262R/W38E/Y61H); details: read-out: Binding Capacity (IC 50% nM) Other Alleles DR3
DRB5*0101 (DR2w2a) = target: T8, DRB5*0101 (DR2w2a) (Homo sapiens, UniProt P01903+Q30154); assay: biochemical; type: binding
T8 construct: Epstein-Barr virus (EBV) transformed homozygous cell lines were used as sources; endogenous in cells; host or cells: GM3107 (EBV-transformed homozygous B cell line)

DRB1*1201 (DR5w12) = target: T9, DRB1*1201 (DR5w12) (Homo sapiens, UniProt P01903+P01911, A100R/A169T/D57E/D86V/F55L/H45Y/K41T/L162R/M171V/P40S/Q125H/Q178H/Q39Y/Q99D/R42G/S66L/T262R/V114A/V67L/W38E/Y59H/Y61H/Y89S); assay: biochemical; type: binding
T9 construct: Epstein-Barr virus (EBV) transformed homozygous cell lines were used as sources; endogenous in cells; host or cells: Herluf (EBV-transformed homozygous B cell line)

DRB1*0901 (DR9) = target: T10, DRB1*0901 (DR9) (Homo sapiens, UniProt P01903+P01911, A100R/A103E/D57H/D86V/F55Y/F60I/F76Y/I96F/K127E/L162R/M171V/P40D/Q125H/Q99R/R33Q/R42F/S133A/S66N/T210M/V115G/W38K/Y107V/Y59G/Y89S); assay: biochemical; type: binding
T10 construct: Epstein-Barr virus (EBV) transformed homozygous cell lines were used as sources; endogenous in cells

DRB1*1101 (DR5w11) = target: T11, DRB1*1101 (DR5w11) (Homo sapiens, UniProt P01903+P01911, A100R/A169T/A87E/I96F/K41T/L162R/M171V/P40S/Q125H/Q178H/Q39Y/Q99D/R42S/S66Y/T262R/V115G/W38E); assay: biochemical; type: binding
T11 construct: Epstein-Barr virus (EBV) transformed homozygous cell lines were used as sources; endogenous in cells; host or cells: SWEIG (EBV-transformed homozygous B cell line)
T11 sequence (P01903 26-254, other chains not shown): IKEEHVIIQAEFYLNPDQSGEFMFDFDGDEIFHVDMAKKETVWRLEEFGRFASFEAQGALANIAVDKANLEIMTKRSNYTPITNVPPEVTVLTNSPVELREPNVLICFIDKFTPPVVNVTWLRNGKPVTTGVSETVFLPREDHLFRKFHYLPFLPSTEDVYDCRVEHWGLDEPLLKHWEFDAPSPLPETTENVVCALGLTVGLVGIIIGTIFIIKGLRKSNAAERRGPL

DRB1*1302 (DR6w19) = target: T12, DRB1*1302 (DR6w19) (Homo sapiens, UniProt P01903+P01911, A100E/A169T/K41T/L162R/M171V/P40S/Q125H/Q178H/Q39Y/Q99D/R42S/S66N/T262R/V115G/W38E/Y61H); assay: biochemical; type: binding
T12 construct: Epstein-Barr virus (EBV) transformed homozygous cell lines were used as sources; the source of Class II molecules the EBV transformed homozygous cell line H0301; endogenous in cells; host or cells: H0301 (EBV-transformed homozygous B cell line)

DRB1*0301 (DR3w17) [2] = target: T7, DRB1*0301 (DR3w17); assay: biochemical; details: Binding Capacity (IC50% nM) DR3
[3] = Binding Capacity (IC 50% nM) DR1,4,7 DRB1
[4] = read-out: Binding Capacity (IC 50% nM) Other Alleles DR4w15
[5] = Binding Capacity (IC 50% nM) Other Alleles DR2w2b
[6] = read-out: Binding Capacity (IC 50% nM) DR1,4,7 DR4w4
[7] = Binding Capacity (IC50% nM) DR8w2
[8] = read-out: Binding Capacity (IC 50% nM) Other Alleles DR8w2
[9] = Binding Capacity (IC 50% nM) DR1,4,7 DR7
[10] = Binding Capacity (IC50% nM) DR5w12
[11] = read-out: Binding Capacity (IC 50% nM) Other Alleles DR5w12
[12] = Binding Capacity (IC50% nM) DR9
[13] = read-out: Binding Capacity (IC 50% nM) Other Alleles DR9
[14] = Binding Capacity (IC50% nM) DR5w11
[15] = read-out: Binding Capacity (IC 50% nM) Other Alleles DR5w11
[16] = Binding Capacity (IC50% nM) DR7
[17] = Binding Capacity (IC 50% nM) Other Alleles DR2w2a
[18] = read-out: Binding Capacity (IC 50% nM) Other Alleles DR6w19

Compound | IC50 (DRB1*0101 (DR1); [3]) [nM] | IC50 (DRB1*0405 (DR4w15); [4]) [nM] | IC50 (DRB1*1501 (DR2w2b); [5]) [nM] | IC50 (DRB1*0401 (DR4w4); [6]) [nM] | IC50 (DRB1*0802 (DR8w2); [7]) [nM] | IC50 (DRB1*0802 (DR8w2); [8]) [nM] | IC50 (DRB1*0701 (DR7); [9]) [nM] | IC50 (DRB1*0301 (DR3w17) [1]) [nM] | IC50 (DRB1*1201 (DR5w12); [10]) [nM] | IC50 (DRB1*1201 (DR5w12); [11]) [nM] | IC50 (DRB1*0901 (DR9); [12]) [nM] | IC50 (DRB1*0901 (DR9); [13]) [nM] | IC50 (DRB1*1101 (DR5w11); [14]) [nM] | IC50 (DRB1*1101 (DR5w11); [15]) [nM] | IC50 (DRB1*0301 (DR3w17) [2]) [nM] | IC50 (DRB1*0701 (DR7); [16]) [nM] | IC50 (DRB5*0101 (DR2w2a); [17]) [nM] | IC50 (DRB1*1302 (DR6w19); [18]) [nM] | further results
CC[C@H](C)[C@H](NC(=O)[C@H](CC(=O)O)NC(=O)[C@H](CC(C)C)NC(=O)[C@@H](NC(=O)CNC(=O)[C@@H](NC(=O)[C@@H](NC(=O)[C@@H](NC(=O)[C@@H](NC(=O)[C@H](C)NC(=O)[C@H](CC(C)C)NC(=O)[C@@H](NC(=O)[C@H](CC(N)=O)NC(=O)[C@H](CO)NC(=O)[C@H](CC(C)C)NC(=O)[C@@H](N)CC(N)=O)C(C)C)[C@@H](C)O)[C@@H](C)CC)[C@@H](C)O)[C@@H](C)O)C(C)C)C(=O)O [Peptide 1136.24] | < 1000 | > 1000 | < 1000 | > 1000 | > 10000 | > 1000 | < 1000 | > 1000 | > 10000 | > 1000 | > 10000 | > 1000 | > 10000 | > 1000 | > 10000 |  |  |  | IC50 (DRB5*0101 (DR2w2a); read-out: Binding Capacity (IC 50% nM) Other Alleles DR2w2a): > 1000 nM; IC50 (DRB1*1302 (DR6w19); Binding Capacity (IC 50% nM) Other Alleles DR6w19): < 1000 nM
RVYQEPQVSPPQRAET [Peptide 1136.59.01a] | < 1000 | > 1000 |  |  | > 10000 | > 1000 |  | > 1000 | > 10000 | > 1000 | > 10000 | > 1000 | > 10000 | > 1000 | > 10000 | > 10000 | < 1000 | > 1000 | IC50 (DRB1*0101 (DR1); Binding Capacity (IC50% nM) DR1): 130 nM; IC50 (DRB1*0405 (DR4w15); Binding Capacity (IC50% nM) DR4w15): 3140 nM; IC50 (DRB1*1501 (DR2w2b); Binding Capacity (IC50% nM) DR2w2b): > 10000 nM; IC50 (DRB1*1501 (DR2w2b); read-out: Binding Capacity (IC 50% nM) Other Alleles DR2w2b): > 1000 nM; IC50 (DRB1*0401 (DR4w4); Binding Capacity (IC 50% nM) DR1,4,7 DR4w4): < 1000 nM; IC50 (DRB1*0701 (DR7); read-out: Binding Capacity (IC 50% nM) DR1,4,7 DR7): > 1000 nM; IC50 (DRB1*1302 (DR6w19); Binding Capacity (IC50% nM) DR6w19): > 10000 nM
CC[C@H](C)[C@H](NC(=O)[C@H](CC(C)C)NC(=O)[C@H](Cc1ccccc1)NC(=O)[C@H](CS)NC(=O)[C@@H](NC(=O)[C@H](C)NC(=O)[C@@H](N)Cc1ccccc1)[C@@H](C)O)C(=O)N1CCC[C@H]1C(=O)N[C@@H](CC(C)C)C(=O)N[C@H](C(=O)N[C@@H](CO)C(=O)N[C@@H](CCC(N)=O)C(=O)N[C@@H](Cc1ccccc1)C(=O)N[C@@H](Cc1ccccc1)C(=O)N[C@@H](CC(C)C)C(=O)N1CCC[C@H]1C(=O)O)[C@@H](C)O [Peptide 1136.14] | < 1000 |  | < 1000 | > 1000 | > 10000 | > 1000 | < 1000 | > 1000 |  | > 1000 |  | > 1000 | > 10000 | > 1000 | > 10000 | 100 | < 1000 | > 1000 | IC50 (DRB1*0405 (DR4w15); Binding Capacity (IC 50% nM) Other Alleles DR4w15): < 1000 nM
